According to US9221756B2, “Pyrrole derivatives” (priority 2011, dated 2015):

molecular target: pneumolysin (Streptococcus pneumoniae serotype 2, UniProt Q04IN8); test: Inhibition of the haemolytic activity of pneumolysin (sheep erythrocytes); format: cell-based; conditions: IC50, inhibition of pneumolysin-induced haemolysis of sheep erythrocytes; class symbols of Table 1
Sequence (Q04IN8 whole entry): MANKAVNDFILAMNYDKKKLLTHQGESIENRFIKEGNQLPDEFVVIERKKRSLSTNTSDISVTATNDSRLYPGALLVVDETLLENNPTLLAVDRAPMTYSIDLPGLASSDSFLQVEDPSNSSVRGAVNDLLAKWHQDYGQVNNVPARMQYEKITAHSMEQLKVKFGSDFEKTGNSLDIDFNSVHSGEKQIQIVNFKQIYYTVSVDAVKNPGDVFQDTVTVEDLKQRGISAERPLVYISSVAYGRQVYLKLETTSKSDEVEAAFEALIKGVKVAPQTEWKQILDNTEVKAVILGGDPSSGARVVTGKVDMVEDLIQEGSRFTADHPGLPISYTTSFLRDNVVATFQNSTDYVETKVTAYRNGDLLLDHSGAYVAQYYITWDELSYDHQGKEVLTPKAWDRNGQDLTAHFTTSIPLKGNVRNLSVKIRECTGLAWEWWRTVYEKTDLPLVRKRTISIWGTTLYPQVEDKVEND

SMILES | IC50 [µM]
CCOC(=O)c1c(O)c(O)c(C(=O)N(CC)CC)n1-c1ccc(OC)cc1 [UL1-041, ethyl 5-(diethylcarbamoyl)-3,4-dihydroxy-1-(4-methoxyphenyl)-1H-pyrrole-2-carboxylate] | < 10
CCOC(=O)c1c(O)c(O)c(C(=O)N(C)C)n1-c1ccc(I)cc1 [UL1-042, ethyl 5-(dimethylcarbamoyl)-3,4-dihydroxy-1-(4-iodophenyl)-1H-pyrrole-2-carboxylate] | < 10
CCOC(=O)c1c(O)c(O)c(C(=O)N(C)C)n1-c1ccc(OC)c(I)c1 [UL1-043, ethyl 5-(dimethylcarbamoyl)-3,4-dihydroxy-1-(3-iodo-4-methoxyphenyl)-1H-pyrrole-2-carboxylate] | < 10
CCOc1ccc(-n2c(C(=O)N(CC)CC)c(OCc3ccccc3)c(OCc3ccccc3)c2C(=O)N(CC)CC)cc1 [UL1-045, 3,4-bis(benzyloxy)-1-(4-ethoxyphenyl)-N^2,N^2,N^5,N^5-tetraethyl-1H-pyrrole-2,5-dicarboxamide] | < 10
CCN(CC)C(=O)c1c(OCc2ccccc2)c(OCc2ccccc2)c(C(=O)N(CC)CC)n1-c1ccc(OC)cc1 [UL1-046, 3,4-bis(benzyloxy)-N^2,N^2,N^5,N^5-tetraethyl-1-(4-methoxyphenyl)-1H-pyrrole-2,5-dicarboxamide] | < 10
COc1ccc(-n2c(C(=O)N(C)C)c(OCc3ccccc3)c(OCc3ccccc3)c2C(=O)N(C)C)cc1 [UL1-047, 3,4-bis(benzyloxy)-1-(4-methoxyphenyl)-N^2,N^2,N^5,N^5-tetramethyl-1H-pyrrole-2,5-dicarboxamide] | 10 to 20
COc1ccc(-n2c(C(=O)N3CCN(C(=O)OC(C)(C)C)CC3)c(OCc3ccccc3)c(OCc3ccccc3)c2C(=O)N2CCN(C(=O)OC(C)(C)C)CC2)cc1 [UL1-048, di-tert-butyl 4,4′-(3,4-bis(benzyloxy)-1-(4-methoxyphenyl)-1H-pyrrole-2,5-dicarbonyl)bis(piperazine-1-carboxylate)] | < 10
COc1ccc(-n2c(C(=O)N3CCCCC3)c(OCc3ccccc3)c(OCc3ccccc3)c2C(=O)N2CCCCC2)cc1 [UL1-049, (3,4-bis(benzyloxy)-1-(4-methoxyphenyl)-1H-pyrrole-2,5-diyl)bis(piperidin-1-ylmethanone)] | < 10
COc1ccccc1-n1c(C(=O)N(C)C)c(OCc2ccccc2)c(OCc2ccccc2)c1C(=O)N(C)C [UL1-050, 3,4-bis(benzyloxy)-1-(2-methoxyphenyl)-N^2,N^2,N^5,N^5-tetramethyl-1H-pyrrole-2,5-dicarboxamide] | 10 to 20
COc1ccccc1-n1c(C(=O)N2CCOCC2)c(OCc2ccccc2)c(OCc2ccccc2)c1C(=O)N1CCOCC1 [UL1-051, (3,4-bis(benzyloxy)-1-(2-methoxyphenyl)-1H-pyrrole-2,5-diyl)bis(morpholinomethanone)] | 20 to 60
CCOc1ccc(-n2c(C(=O)N(C)C)c(OCc3ccccc3)c(OCc3ccccc3)c2C(=O)N(C)C)cc1 [UL1-052, 3,4-bis(benzyloxy)-1-(4-ethoxyphenyl)-N^2,N^2,N^5,N^5-tetramethyl-1H-pyrrole-2,5-dicarboxamide] | < 10
CCOc1ccc(-n2c(C(=O)N3CCOCC3)c(OCc3ccccc3)c(OCc3ccccc3)c2C(=O)N2CCOCC2)cc1 [UL1-053, (3,4-bis(benzyloxy)-1-(4-ethoxyphenyl)-1H-pyrrole-2,5-diyl)bis(morpholinomethanone)] | 10 to 20
CN(C)C(=O)c1c(OCc2ccccc2)c(OCc2ccccc2)c(C(=O)N(C)C)n1-c1ccc(C(F)(F)F)cc1 [UL1-054, 3,4-bis(benzyloxy)-N^2,N^2,N^5,N^5-tetramethyl-1-(4-(trifluoromethyl)phenyl)-1H-pyrrole-2,5-dicarboxamide] | 10 to 20
CCNC(=O)c1c(OCc2ccccc2)c(OCc2ccccc2)c(C(=O)N(C)C)n1-c1ccc(OC)cc1 [UL1-055, 3,4-bis(benzyloxy)-N^2-ethyl-1-(4-methoxyphenyl)-N^5,N^5-dimethyl-1H-pyrrole-2,5-dicarboxamide] | 10 to 20
COc1ccc(-n2c(C(=O)N(C)C)c(OCc3ccccc3)c(OCc3ccccc3)c2C(=O)N2CCN(C)CC2)cc1 [UL1-056, 3,4-bis(benzyloxy)-1-(4-methoxyphenyl)-N,N-dimethyl-5-(4-methylpiperazine-1-carbonyl)-1H-pyrrole-2-carboxamide] | 10 to 20
COc1ccc(-n2c(C(=O)N(C)C)c(OCc3ccccc3)c(OCc3ccccc3)c2C(=O)N2CCCCC2)cc1 [UL1-057, 3,4-bis(benzyloxy)-1-(4-methoxyphenyl)-N,N-dimethyl-5-(piperidine-1-carbonyl)-1H-pyrrole-2-carboxamide] | < 10
COc1ccc(-n2c(C(=O)N(C)C)c(OCc3ccccc3)c(OCc3ccccc3)c2C(=O)N2CCOCC2)cc1 [UL1-058, 3,4-bis(benzyloxy)-1-(4-methoxyphenyl)-N,N-dimethyl-5-(morpholine-4-carbonyl)-1H-pyrrole-2-carboxamide] | 20 to 60
COc1ccc(-n2c(C(=O)N3CCN(C(C)=O)CC3)c(OCc3ccccc3)c(OCc3ccccc3)c2C(=O)N2CCN(C(C)=O)CC2)cc1 [UL1-059, 1,1′-(4,4′-(3,4-bis(benzyloxy)-1-(4-methoxyphenyl)-1H-pyrrole-2,5-dicarbonyl)bis(piperazine-4,1-diyl))diethanone] | 20 to 60
CCOC(=O)c1c(OCc2ccccc2)c(OCc2ccccc2)c(C#N)n1-c1ccc(F)cc1 [UL1-060, ethyl 3,4-bis(benzyloxy)-5-cyano-1-(4-fluorophenyl)-1H-pyrrole-2-carboxylate] | 20 to 60
CN(C)C(=O)c1c(OCc2ccccc2)c(OCc2ccccc2)c(C#N)n1-c1ccc(F)cc1 [UL1-061, 3,4-bis(benzyloxy)-5-cyano-1-(4-fluorophenyl)-N,N-dimethyl-1H-pyrrole-2-carboxamide] | < 10
CCOC(=O)c1c(OCc2ccccc2)c(OCc2ccccc2)c(C(=O)N(C)C)n1-c1ccc(I)cc1 [UL1-062, ethyl 3,4-bis(benzyloxy)-5-(dimethylcarbamoyl)-1-(4-iodophenyl)-1H-pyrrole-2-carboxylate] | < 10
COc1ccc(-n2c(C(N)=O)c(OCc3ccccc3)c(OCc3ccccc3)c2C(N)=O)cc1 [UL1-072, 3,4-bis(benzyloxy)-1-(4-methoxyphenyl)-1H-pyrrole-2,5-dicarboxamide] | 20 to 60
COc1ccc(-n2c(C(N)=O)c(O)c(O)c2C(N)=O)cc1 [UL1-073, 3,4-dihydroxy-1-(4-methoxyphenyl)-1H-pyrrole-2,5-dicarboxamide] | < 10
CCNC(=O)c1c(OCc2ccccc2)c(OCc2ccccc2)c(C(=O)NCC)n1-c1ccc(OC)cc1 [UL1-074, 3,4-bis(benzyloxy)-N2,N5-diethyl-1-(4-methoxyphenyl)-1H-pyrrole-2,5-dicarboxamide] | 20 to 60
NC(=O)c1c(OCc2ccccc2)c(OCc2ccccc2)c(C(N)=O)n1-c1ccc(F)cc1 [UL1-075, 3,4-bis(benzyloxy)-1-(4-fluorophenyl)-1H-pyrrole-2,5-dicarboxamide] | 20 to 60
NC(=O)c1c(O)c(O)c(C(N)=O)n1-c1ccc(F)cc1 [UL1-076, 1-(4-fluorophenyl)-3,4-dihydroxy-1H-pyrrole-2,5-dicarboxamide] | 10 to 20
CCOc1ccc(-n2c(C(N)=O)c(O)c(O)c2C(N)=O)cc1 [UL1-077, 1-(4-ethoxyphenyl)-3,4-dihydroxy-1H-pyrrole-2,5-dicarboxamide] | 20 to 60

same assay, conditions: IC50, inhibition of pneumolysin-induced haemolysis of sheep erythrocytes; specific values

SMILES | IC50 [µM]
COc1ccc(-n2c(C(=O)N3CCCCC3)c(OCc3ccccc3)c(OCc3ccccc3)c2C(=O)N2CCCCC2)cc1 [UL1-049, (3,4-bis(benzyloxy)-1-(4-methoxyphenyl)-1H-pyrrole-2,5-diyl)bis(piperidin-1-ylmethanone)] | 0.479
